Source: patent US11382907B2, “Methods and compositions for treating aging-associated impairments using CCR3-inhibitors” (Alkahest, Inc., priority 2017, dated 2022)
“Also recorded” adds a separate entry of the source.

Experiments:
aged C57Bl/6 mice = assay: Barnes maze test in aged mice; format: in vivo
From the text: A modified Barnes maze was used to assess spatial working/episodic like learning and memory. The Barnes maze apparatus consists of a 122 cm diameter circular platform with 40 escape holes, each with a diameter of 5 cm placed along three rings of varying distances from the center of the platform. An escape box is attached to one of the holes and all holes are left uncovered. Bright lights and a fan are trained on the maze to provide adverse stimuli to encourage escape. Visual cues are placed on all four sides of the maze. Mice are given a series of 4 or 5 trials with inter-trial intervals of approximately 10 min, and the maximum duration of each trial is 90 or 120 sec. For each trial, mice are placed in the center of the maze. After 10 seconds, mice are allowed to explore, and the trial is ended if the mouse has found and entered an escape box before the end of the trial. Mice that cannot find the escape box are led to it and allowed to enter and given 30 sec to remain before being returned to its home cage. Training is done for 4 days. Data that is recorded and analyzed include velocity, escape latency, and distance moved.
Mice are divided into groups of 4-5 mice each, with balanced treatment groups. For example, Group 1 mice are run for 4 trials, then Group 2 mice are run for 4 trials, and so on until all groups finish testing. 70% ethanol is used to clean the arenas between trials.
Three-month-old or 16.5-month-old C57Bl/6 mice were dosed with either vehicle control or Compound 1 subcutaneously by Alzet osmotic pump for 4 weeks. During the last week of treatment, mice were subjected to behavior testing prior to perfusion on the last day of treatment. All mice received 5 consecutive days of BrdU injection at 150 mg/kg IP immediately prior to treatment start.
23-month-old C57Bl/6 mice were dosed with either vehicle control or Compound 1 subcutaneously twice daily for 21 days. Three weeks later, mice were subjected to behavior testing, and sacrificed the day following the last behavior test.

[1] = Pharmacokinetic profile after P.O. dosing (plasma concentration); format: in vivo; details: mouse, 30 mg/kg oral gavage, male 2-month-old C57Bl/6 mice, for 8 hours, read-out: plasma concentration of Compound 1 maintained for 8 hours
Method: (§1) Compound levels were measured by MS/MS by Quintara (Hayward, Calif.).
Plasma from male 2-month-old C57Bl/6 mice was measured for concentrations of Compound 1 at time points of 20 minutes, 2 hours, 8 hours, and 12 hours after oral gavage at 2 doses: 30 mg/kg and 150 mg/kg.

[2] = system: human eosinophils activated by human eotaxin-1; assay: Eosinophil shape change (ESC) assay (FACS, whole blood); format: cell-based; details: whole blood from humans treated with Compound 1, incubated with human recombinant eotaxin-1
Method: The ESC determines the shape change of human eosinophils activated by human eotaxin-1 (PreProTech, Rocky Hill, N.J.) compared to native eosinophils. The change is detected as the change in the forward-scatter measured by FACS (fluorescence activated cell sorter). The mean forward scatter of the autofluorescence (eosinophil) population for each sample was determined in conjunction with the mean of each set of sample triplicates. Methods of determining ESC have been previously described and are known in the art.
Whole blood from humans treated with Compound 1 was incubated with human recombinant eotaxin-1 to trigger eosinophil shape change (FIG. 34A) or CCR3 receptor internalization (FIG. 34B).

[3] = system: twenty-four-month-old C57 mice; assay: Overnight fecal output, water and food intake in aged mice; format: in vivo; details: 4 weeks continuous infusion by osmotic pump
Method: Twenty-four-month-old C57 mice were treated for 4 weeks with continuous infusion of Compound 1 or vehicle by Alzet osmotic pump, which were implanted to continuously deliver the two treatments.
Treatment Groups: • Treatment Group 1, Old Controls: Aged C57BL/6 mice (n=15), aged 23 months, received infusion of vehicle by Alzet mini-pump, model 2002 (0.5 uL/hr), for four weeks with one replacement. • Treatment Group 2, Compound 1 (dose 2) in Old: Aged C57BL/6 mice (n=15), aged 23 months, received infusion of ˜50 mg/ml Compound 1 by Alzet mini-pump, model 2002 (0.5 uL/hr), for four weeks with one replacement.
Fecal output was measured by weighing the dry weight of fecal pellets overnight (FIG. 22). […] is a well-known symptom of Parkinson's disease. Water and food intake were measured over the same time period.

[4] = Compound plasma levels in mice under Alzet pump infusion; format: in vivo, C57BL/6 mice; details: C57BL/6, mouse, other: Alzet pump infusion (perfused), 25 µg/hr, mean±s.e.m., read-out: level of the compound in plasma
Method: as §1
FIG. 6 depicts the levels of the compound of the invention that were detected in mouse CSF for both the young and old groups (both below 10 nM).

blood eosinophils [5] = assay: Oxazolone-induced model of eosinophilia in hairless mice (CBC); format: in vivo; details: 3-month-old hairless mice, oxazolone every other day, 30 mg/kg PO BID 2 weeks
Method: 3-month-old hairless mice were treated with oxazolone (Ox) every other day and treated with control saline or 30 mg/kg Compound 1 for 2 weeks BID, PO.
Treatment Groups: • Treatment Group 1, Vehicle treatment: 3-month-old Hairless mice (n=3) received twice daily (BID) oral gavage (PO) treatment of vehicle solution for 2 weeks. • Treatment Group 2, Vehicle treatment and Oxazolone treatment: 3-month-old Hairless mice (n=6) received twice daily (BID) oral gavage (PO) treatment of vehicle solution for 2 weeks. • Treatment Group 3, Compound 1 treatment and Oxazolone treatment: 3-month-old Hairless mice (n=6) received twice daily (BID) oral gavage (PO) treatment of Compound 1, 30 mg/kg, for 2 weeks.

blood eosinophils [6] = assay: Blood eosinophils in aged mice (FACS); format: in vivo, C57Bl/6 mice; details: 23-month-old mice, 30 mg/kg SQ BID 30 days, subset n=2, 5
Method: 200 uL of whole blood was collected during perfusion and shipped to Charles River Clinical Pathology Services (Shrewsbury, Mass.) for hematology analysis of eosinophil count by FACS (fluorescence activated cell sorter).
23-month-old C57Bl/6 mice were dosed with either vehicle control or Compound 1 subcutaneously twice daily for 30 days, and then sacrificed on the day of the last injection.
Treatment Groups: • Treatment Group 1a, Vehicle treatment: Aged C57Bl/6 mice (n=9), aged 23 months, received twice daily (BID) subcutaneous (SQ) treatment of vehicle solution for 30 days. • Treatment Group 3, Compound 1 treatment: Aged C57Bl/6 mice (n=18), aged 23 months, received twice daily (BID) subcutaneous (SQ) treatment of Compound 1, 30 mg/kg, for 30 days.

[7] = 16.5-month-old mice, 4-week dosing by pump
[8] = 23-month-old mice, 30 mg/kg SQ BID 21 days, tested three weeks later

For `Cc1cc(C(=O)N(C)C)cc(NC(=O)[C@H]2CCC(=O)N2C2CCN(Cc3ccc(Cl)c(C)c3)CC2)n1` [Compound 1], the “Barnes maze average of the latency for day 4 trials” value (aged C57Bl/6 mice; [7]) was “Trends for improved memory”, the “Barnes maze difference between the latencies of trials 13 and 16” value (aged C57Bl/6 mice; [7]) was “Trends for improved memory” and the “performance in the Barnes maze” value (aged C57Bl/6 mice; [7]) was “trended towards improved performance”. For the same compound, the “Barnes Maze spatial memory performance” value (aged C57Bl/6 mice; [8]) was “performed significantly better”, the “velocity during the Barnes Maze test” value (aged C57Bl/6 mice; [8]) was “exhibited increased velocity” and the concentration at 8 hours [1] was over 100 nM. The “inhibition of eosinophil shape change versus plasma Compound 1 concentration” value [2] was “robust concentration-dependent effect”, the fecal output overnight [3] was “significantly lower fecal output” and the food intake overnight [3] was “no differences in total food intake”. For the same compound, the water intake overnight [3] was “significantly higher water intake; also recorded: drank significantly more water”, the concentration at 4 weeks ([4]; old (18-month) mice perfused 4 weeks at 0.5 μL/hr of 50 mg/mL solution) was 355 ± 43 nM and the concentration at 2 weeks ([4]; young (2-month-old) mice perfused 2 weeks at 0.5 μL/hr of 50 mg/mL solution) was 352 ± 31 nM. The “blood eosinophils (percentage of WBC count)” value (blood eosinophils [5]) was “decreased the oxazolone-induced increase in blood eosinophils; also recorded: decreased an oxazolone-induced increase in blood eosinophils” and the “blood eosinophils (percentage of WBC count)” value (blood eosinophils [6]) was “strong trend towards decreased blood eosinophils; also recorded: decreased an endogenous age-related increase in blood eosinophils”.
